How the values were obtained:
[1] = tested on: human Pan T cells (IL-2 release); experiment: Human Pan T Cell IL-2 ELISA; assay type: cell-based
Protocol: Assay Example 4 Human Pan T Cell IL-2 ELISA
A compound was dissolved in DMSO to 10 mM, and then diluted three-fold with DMSO to 9 dosages in a 96-well plate. Then, 10 μL of the diluted compound sample was transferred to a 96-well plate with 90 μL of cell culture medium, and the plate was shaken for 5 minutes. Then, 5 μL of the diluted compound sample was transferred to a 96-well plate with 120 μL of cell culture medium, and the plate was shaken for 5 minutes. According to the experimental design diagram, 50 μL of the diluted compound sample was transferred to a cell plate. Final concentrations of the compound in this assay were 10000.00, 5000, 2500, 1250, 625, 312.5, 156.25, 78.125 and 39.063 nM.
The assay was conducted in a 96-well plate. On the first day of the assay, Anti-CD3 was added to the 96-well plate and incubated in a 4 °C refrigerator overnight. On the second day of the assay, human Pan T cells were recovered, centrifuged and counted. The cell density was adjusted to 1*10^6 cells/ml. Then, 100 μL of cells were added to the 96-well plate washed with PBS and added with Anti-CD3; according to the experimental design diagram, 50 μL of diluted Anti-CD28 and 50 μL of the diluted compound were added to each well, centrifuged, and the cell plate was placed and incubated in an incubator for 48 hours; after 48 hours, the plate was centrifuged and the supernatant was collected for IL-2 ELISA.
The signal value of light absorption was converted into a multiple. Multiple=sample value/the average value of control wells. The average value of control wells refers to the value measured in wells with DMSO added. EC50 values were calculated by XLFit (version 5.3.1.3) in Excel. Equation: Y=Bottom+(Top−Bottom)/(1+(EC50/X)^HillSlope).

[2] = target: T1, pSLP76 (Phospho-SLP-76 (Ser376)), Jurkat E6-1 cells (Homo sapiens, UniProt Q92918); experiment: Phospho-SLP-76 (Ser376) HTRF Assay in Jurkat E6-1 cells; assay type: cell-based; conditions: compound 4 hours, then anti-CD3 20 minutes
T1 construct: read-out phospho-SLP-76 (Ser376) HTRF
T1 sequence (Q92918 whole entry): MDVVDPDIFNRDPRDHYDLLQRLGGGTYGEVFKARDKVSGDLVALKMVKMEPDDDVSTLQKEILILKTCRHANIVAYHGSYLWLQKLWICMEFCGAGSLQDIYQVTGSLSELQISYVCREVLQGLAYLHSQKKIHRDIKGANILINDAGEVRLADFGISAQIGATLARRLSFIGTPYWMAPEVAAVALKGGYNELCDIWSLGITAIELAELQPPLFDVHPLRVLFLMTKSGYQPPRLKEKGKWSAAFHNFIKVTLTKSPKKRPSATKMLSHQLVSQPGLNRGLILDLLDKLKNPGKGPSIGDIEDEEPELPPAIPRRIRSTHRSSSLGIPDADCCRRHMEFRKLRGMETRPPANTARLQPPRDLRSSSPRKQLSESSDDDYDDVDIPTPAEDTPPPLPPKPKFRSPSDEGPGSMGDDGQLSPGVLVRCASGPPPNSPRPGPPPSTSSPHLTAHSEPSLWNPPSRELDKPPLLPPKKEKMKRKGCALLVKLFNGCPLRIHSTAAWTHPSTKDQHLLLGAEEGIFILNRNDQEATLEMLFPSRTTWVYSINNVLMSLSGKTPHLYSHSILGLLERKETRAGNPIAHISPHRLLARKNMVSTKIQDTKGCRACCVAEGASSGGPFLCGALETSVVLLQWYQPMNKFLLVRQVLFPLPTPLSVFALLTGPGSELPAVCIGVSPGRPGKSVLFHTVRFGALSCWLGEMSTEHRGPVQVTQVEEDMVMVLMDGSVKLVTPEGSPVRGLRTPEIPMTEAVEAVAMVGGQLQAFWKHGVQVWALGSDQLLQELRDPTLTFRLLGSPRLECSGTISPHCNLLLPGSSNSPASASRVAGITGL
Protocol: Assay Example 3 Phospho-SLP-76 (Ser376) HTRF Assay
A compound was dissolved in DMSO to 10 mM, and then diluted three-fold with DMSO to 10 dosages in a 96-well plate. Then, 3 μL of the diluted compound sample was transferred to a 96-well plate with 97 μL of cell culture medium, and the plate was shaken for 5 minutes. According to the experimental design diagram, 7.5 μL of the diluted compound sample was transferred to a cell plate. Final concentrations of the compound in this assay were 10000.00, 3333.33, 1111.11, 370.37, 123.46, 41.15, 13.72, 4.57, 1.52 and 0.51 nM.
In this assay, the density of Jurkat E6-1 cells was maintained between 3*10^5 to 3*10^6 cells/mL. The cell culture was replaced with fresh culture medium every 2 to 3 days (depending on the cell density). 30 μL of Jurkat E6-1 (300,000 cells) was added to a 96-well plate and incubated in a 37 °C incubator for 1 hour. Then, according to the experimental design diagram, compounds (6×, 7.5 μL) were added to treat the cells for 4 hours, respectively. After 4 hours, purified anti-human anti-CD3 antibodies (6×, 7.5 μL) were added to treat the cells for 20 minutes. After 20 minutes, 15 μL of cell lysis buffer (4×) was added, and the cells were lysed at 25 °C with shaking (250 rpm) for 1 hour. Then, according to the experimental design diagram, 16 μL of cell lysate was transferred to a 384-well plate using a pipette. After the transfer, 4 μL of antibody detection mixture was added. After being placed at room temperature overnight, the plate was read by EnVision multi-function microplate reader to read the FRET signal (the ratio of HTRF 665/615 was calculated from the readings at 665 nm and 615 nm).
The ratio of the signal at 665 nm to the signal at 615 nm was converted to the percentage of inhibition. Inhibition %=(maximum value−sample value)/(maximum value−minimum value)×100. The minimum value refers to the signal value of a well without anti-CD3 antibody stimulation during the treatment of cells, and the maximum value refers to the signal value of a well with anti-CD3 antibody stimulation but without the compound during the treatment of cells. IC50 values were calculated by XLFit (version 5.3.1.3) in excel. Equation: Y=Bottom+(Top−Bottom)/(1+(IC50/X)^HillSlope).

[3] = Anti-CD3/Anti-CD28, 48 hours, IL-2 ELISA
[4] = Homo sapiens, T-cell, 48 h, Anti-CD3/Anti-CD28, IL-2 ELISA
[5] = Homo sapiens, T-cell, 48 h, Anti-CD3/Anti-CD28 stimulation, IL-2 ELISA of supernatant
[6] = Anti-CD3/Anti-CD28 stimulation, 48 hours, IL-2 ELISA of supernatant

## COC1CCCn2c(-c3cc4c(c5c3CNC5=O)Nc3ccc(N5CCOCC5)nc3C4(C)C)cnc21 (single isomer, unassigned) [Example 25]
[1]; [3]
  EC50: 33.4 nM

## Cc1ccn2c(-c3cc4c(c5c3CNC5=O)Nc3ccc(N5CCO[C@H](C(C)(C)O)C5)cc3C4(C)C)cnc2c1F (single isomer, unassigned) [Example 89]
[1]; [4]
  EC50: 6.64 nM

## CO[C@@H]1CCCn2c(-c3cc4c(c5c3CNC5=O)Nc3ccc(N5CCOCC5)cc3C4(C)C)cnc21 (single isomer, unassigned) [Example 91]
[1]; [4]
  EC50: 5.96 nM

## CC1(C)c2cc(N3CCO[C@H](C(C)(C)O)C3)ccc2Nc2c1cc(-c1cnc3cc(F)ccn13)c1c2C(=O)NC1 (single isomer, unassigned) [Example 94]
[1]; [4]
  EC50: 4.84 nM

## Cc1ccc2c(-c3cc4c(c5c3CNC5=O)Nc3ccc(N5CCO[C@H](C(C)(C)O)C5)cc3C4(C)C)cnn2c1 (single isomer, unassigned) [Example 96]
[1]; [4]
  EC50: 5.91 nM

## Cc1ccn2c(-c3cc4c(c5c3CNC5=O)Nc3ccc(N5CCOC(C(C)(C)O)C5)cc3C4(C)C)cnc2c1 (single isomer, unassigned) [Example 106]
[1]; [3]
  EC50: 18.3 nM

## COC1CCCn2c(-c3cc4c(c5c3CNC5=O)Nc3ccc(N5CCOC(C(C)(C)O)C5)cc3C4(C)C)cnc21 (single isomer, unassigned) [Example 132]
[1]; [3]
  EC50: 10.1 nM

## CCO[C@@H]1CCCn2c(-c3cc4c(c5c3CNC5=O)Nc3ccc(N5CCOCC5)cc3C4(C)C)cnc21 (single isomer, unassigned) [Example 137]
[1]; [4]
  EC50: 26.8 nM

## CO[C@H]1CCn2c(-c3cc4c(c5c3CNC5=O)Nc3ccc(N5CCO[C@@H](C(C)(C)O)C5)cc3C4(C)C)cnc2C1 (single isomer, unassigned) [Example 166]
[1]; [5]
  EC50: 15 nM

## CC[C@@]1(C)c2cc(N3CCOCC3)ccc2Nc2c1cc(-c1cnc3n1CCC[C@@H]3OC)c1c2C(=O)NC1 (single isomer, unassigned) [Example 167]
[1]; [6]
  EC50: 38 nM

## CC[C@@]1(C)c2cc(N3CCOCC3)ccc2Nc2c1cc(-c1cnc3n1CCC[C@@H]3OC)c1c2C(=O)NC1 (single isomer, unassigned) [Example 168]
[1]; [6]
  EC50: 17 nM

## CO[C@@H]1CCn2c(-c3cc4c(c5c3CNC5=O)Nc3ccc(N5CCO[C@@H](C(C)(C)O)C5)cc3C4(C)C)cnc2C1 (single isomer, unassigned) [Example 176]
[1]; [5]
  EC50: 31 nM

## COC1CCCn2c(-c3cc4c(c5c3CNC5=O)Nc3ccc(N5CCOCC5C)cc3C4(C)C)cnc21 (single isomer, unassigned) [Example 180]
[1]; [6]
  EC50: 27 nM

## COC1CCCn2c(-c3cc4c(c5c3CNC5=O)Nc3ccc(N5CCOCC5C)cc3C4(C)C)cnc21 (single isomer, unassigned) [Example 181]
[1]; [6]
  EC50: 26 nM

## CC1(C)c2cc(N3CCOCC3)ccc2Nc2c1cc(-c1cnc3n1CCC[C@@H]3OC1COC1)c1c2C(=O)NC1 (single isomer, unassigned) [Example 221]
[1]; [5]
  EC50: 98 nM

## Cc1ccn2c(-c3cc4c(c5c3CNC5=O)Nc3ccc(N5CCO[C@H](C(C)(C)O)C5)cc3C4(C)C)cnc2c1 (stereo in doubt) [Example 107]
[1]; [4]
  EC50: 11.9 nM

## CO[C@H]1CCCn2c(-c3cc4c(c5c3CNC5=O)Nc3ccc(N5CC6CCC5CO6)cc3C4(C)C)cnc21 (stereo in doubt) [Example 204]
[1]; [5]
  EC50: 15 nM

## CC1(C)c2cc(N3CCOCC3)ccc2Nc2c1cc(-c1cnc3c(Cl)cccn13)c1cc[nH]c(=O)c21 [Example 1]
[2]
  IC50: 121 nM
[1]; [4]
  EC50: 3.67 nM

## COc1cccn2c(-c3cc4c(c5c(=O)[nH]ccc35)Nc3ccc(N5CCOC(C(C)(C)O)C5)cc3C4(C)C)cnc12 (stereo not shown) [Example 2]
[2]
  IC50: 64 nM

## COc1cccn2c(-c3cc4c(c5c(=O)[nH]ccc35)Nc3ccc(N5CCOCC5)cc3C4(C)C)cnc12 [Example 3]
[2]
  IC50: 57.5 nM

## CC1(C)c2cc(N3CCOCC3)ccc2Nc2c1cc(-c1cnn3cccnc13)c1cc[nH]c(=O)c21 [Example 4]
[2]
  IC50: 38.1 nM

## Cc1ccn2c(-c3cc4c(c5c(=O)[nH]ccc35)Nc3ccc(N5CCOC(C(C)(C)O)C5)cc3C4(C)C)cnc2c1F (stereo not shown) [Example 6]
[2]
  IC50: 164 nM

## Cc1ccc2c(-c3cc4c(c5c(=O)[nH]ccc35)Nc3ccc(N5CCOC(C(C)(C)O)C5)cc3C4(C)C)cnn2c1 (stereo not shown) [Example 7]
[2]
  IC50: 487 nM

## COc1cccc2c(-c3cc4c(c5c(=O)[nH]ccc35)Nc3ccc(N5CCOCC5)cc3C4(C)C)cnn12 [Example 8]
[2]
  IC50: 103 nM

## Cc1ccn2c(-c3cc4c(c5c3CNC5=O)Nc3ccc(N5CCOC(C(C)(C)O)C5)cc3C4(C)C)cnc2c1F (stereo not shown) [Example 9]
[2]
  IC50: 57.8 nM

## COc1cccn2c(-c3cc4c(c5c3CNC5=O)Nc3ccc(N5CCOCC5)cc3C4(C)C)cnc12 [Example 10]
[2]
  IC50: 42.7 nM
[1]; [4]
  EC50: 4.88 nM

## Cc1ccn2c(-c3cc4c(c5c3CNC5=O)Nc3ccc(N5CCOCC5)cc3C4(C)C)cnc2c1F [Example 11]
[2]
  IC50: 73.3 nM

## CC1(C)c2cc(N3CCOCC3)ccc2Nc2c1cc(-c1cnc3cccnn13)c1c2C(=O)NC1 [Example 12]
[2]
  IC50: 25.9 nM

## COc1cccn2c(-c3cc4c(c5c3CNC5=O)Nc3cnc(N5CCOCC5)cc3C4(C)C)cnc12 [Example 14]
[2]
  IC50: 197 nM

## COc1cccc2c(-c3nc4c(c5c3CCNC5=O)Nc3ccc(N5CCOCC5)cc3C4(C)C)cnn12 [Example 15]
[2]
  IC50: 72.2 nM
[1]; [3]
  EC50: 3.95 nM

## CC1(C)c2cc(N3CCOCC3)ccc2Nc2c1cc(-c1cnn3cccnc13)c1c2C(=O)NC1 [Example 16]
[2]
  IC50: 31.6 nM

## CC1(C)c2cc(N3CCOCC3)ccc2Nc2c1cc(-c1cnn3c(C#N)cccc13)c1c2C(=O)NC1 [Example 17]
[2]
  IC50: 56.9 nM

## COc1cccc2c(-c3cc4c(c5c3CNC5=O)Nc3ccc(N5CCOCC5)cc3C4(C)C)cnn12 [Example 18]
[2]
  IC50: 66 nM

## COc1cccn2c(-c3cc4c(c5c3CNC5=O)Nc3ccc(N5CCOCC5)nc3C4(C)C)cnc12 [Example 20]
[2]
  IC50: 83.6 nM

## COc1cccc2c(-c3cc4c(c5c3CNC5=O)Nc3ncc(N5CCOCC5)cc3C4(C)C)cnn12 [Example 21]
[2]
  IC50: 37 nM

## COc1ccnn2c(-c3cc4c(c5c3CNC5=O)Nc3ccc(N5CCOCC5)cc3C4(C)C)cnc12 [Example 31]
[2]
  IC50: 58.8 nM

## Cc1ccnn2c(-c3cc4c(c5c3CNC5=O)Nc3ccc(N5CCOC(C(C)(C)O)C5)cc3C4(C)C)cnc12 (stereo not shown) [Example 33]
[1]; [4]
  EC50: 4.95 nM

## Cn1ccn2c(-c3cc4c(c5c3CNC5=O)Nc3ccc(N5CCOCC5)cc3C4(C)C)cnc2c1=O [Example 41]
[2]
  IC50: 13.5 nM

## COc1ccnc2c(-c3cc4c(c5c3CNC5=O)Nc3ccc(N5CCOCC5)cc3C4(C)C)cnn12 [Example 66]
[1]; [4]
  EC50: 7.83 nM

## CO[C@H]1CCCn2c(-c3cc4c(c5c3CNC5=O)Nc3ccc(N5CC6CCC(C5)O6)cc3C4(C)C)cnc21 [Example 196]
[1]; [5]
  EC50: 27 nM

Reference: US20260355217A1, “HPK1 INHIBITOR, PREPARATION METHOD THEREFOR, AND USE THEREOF” (Beijing Earthwise Technology Co., Ltd., priority 2022, published 2026)
